From patent publication US7211562B2, “Methods for enhancing the efficacy of cytotoxic agents through the use of HSP90 inhibitors” (Sloan-Kettering Institute for Cancer Research, priority 2000, dated 2007)

Columns and labels:
[1] = tested on: SKBR-3 cells; experiment: Confocal microscopy of spindle formation and nuclear fragmentation (Hoechst / anti-tubulin dual stain); assay type: cell-based, human; settings: 12 h; for apoptosis / nuclear fragmentation / mitotic spindle formation / mitotic index: SKBr-3, 10 nM Taxol 4 h followed by 50 nM CNF-101 or vehicle
Protocol: Each experiment was repeated in triplicate.
The effects of Taxol®, CNF-101 and a combination of the two agents on nuclear fragmentation (a marker of apoptosis) and mitotic spindle formation in SKBR-3 cells were assessed.
In these sections, 4% of cells were undergoing mitosis and the mitotic cells appeared normal.

[2] = tested on: SKBR-3 cells; experiment: Cell cycle distribution by DNA content (FACS); assay type: cell-based, human; settings: SKBR-3, 10 nM Taxol 4 h, 50 nM CNF-101 12–24 h, or reversed order
Protocol: Cells were trypsinized and analyzed by DNA content (an indication of cell cycle status) by fluorescent staining and FACS analysis. Cell cycle distribution was assayed according to Nusse et al., 1990, Cytometry, 11: 813, with a Becton Dickinson fluorescence-activated cell sorter and analyzed by Cell Cycle Multi-cycle system (Phoenix Flow System, San Diego, Calif.).

| SMILES | apoptosis / nuclear fragmentation [1] | mitotic spindle formation / mitotic index [1] | cells undergoing mitosis ([1]; SKBr-3, 50 nM CNF-101 alone (or neither drug)) | cell cycle distribution [2] |
| --- | --- | --- | --- | --- |
| C=CCNC1=C2C[C@@H](C)C[C@H](OC)[C@H](O)[C@@H](C)/C=C(\C)[C@H](OC(N)=O)[C@@H](OC)/C=C\C=C(/C)C(=O)NC(=CC1=O)C2=O [CNF-101, 17-allylamino 17-demethoxygeldanamycin] | no significant apoptosis | no effect on the spindle | 4% | slightly enhanced the G1 fraction |
| CC(=O)O[C@H]1C(=O)[C@@]2(C)[C@H]([C@H](OC(=O)c3ccccc3)[C@]3(O)C[C@H](OC(=O)[C@H](O)[C@@H](NC(=O)c4ccccc4)c4ccccc4)C(C)=C1C3(C)C)[C@]1(OC(C)=O)CO[C@@H]1C[C@@H]2O [Taxol®, paclitaxel] | little evidence of apoptotic nuclear fragmentation | increase in the mitotic index with all the mitotic cells appearing to have damaged spindles |  | massive G2-M arrest |
